Source: patent publication US8765729B2, “Cancer therapy” (Aeolus Sciences, Inc., priority 2001, dated 2014)

Key:
[1] = tested on: radiation-induced lung injury; experiment: Radiation-induced lung injury in rats (28 Gy right hemithoracic irradiation); type: in vivo
Procedure: AEOL 10113 was tested (6 mg/kg/day for 5 days beginning on the day of irradiation) in a rat model of radiation-induced lung injury as assessed by breathing rate (animals with lung injury have a more rapid respiration rate), and chemical and microscopic measures of fibrosis. During the follow-up period of 6 months, 4 of the 9 rats receiving radiation only developed severe respiratory distress and were euthanized. In the group of rats treated with radiation plus AEOL 10113, only 1 of the 9 rats developed respiratory distress and was euthanized. Breathing rate data were analyzed on a last observation carried forward (LOCF) data set, in which the last observation for rats euthanized due to respiratory distress was imputed to subsequent weeks. There was a significant (log ranks p=0.0011) delay (approximately 3.4 weeks) in the development of radiation-induced lung injury (assessed by an increase in breathing rate) in animals treated with AEOL 10113 (FIG. 12).
Six months after radiation all remaining animals were euthanized. At that time, the right upper lung lobe was removed and processed to quantify the extent of lung fibrosis based on hydroxyproline content.
Radiation-induced lung fibrosis was also assessed using histopathology (FIG. 13B). Lungs were fixed in 10% neutral buffered formalin. Five-micron thick sections were stained with hematoxylin and eosin or Masson trichrome and examined microscopically. Slides were systematically scanned in a microscope using a ×10 objective. Each successive field was individually assessed for severity of interstitial fibrosis and allotted a score of between 0 and 8.
Studies were performed to evaluate changes in body weight after irradiation and to assess the radioprotective effect of MnTE-2-PyP on radiation-induced pulmonary injury in rats. The body weight and lung function of the animals were measured every two weeks after irradiation in three groups of animals: control, radiation alone and radiation+MnTE-2-PyP. A single dose of 28 Gy was delivered to right hemithorax and 6 mg/kg of MnTE-2-PyP was given daily i.p. for 5 days after irradiation. Unrestrained rats were placed in a 1500 ml whole body plethysmograph tube connected to a pressure transducer for a breathing rate measurements. […] The mean of five measurements was performed on each animal.

[2] = tested on: tumor angiogenesis, R230 mammary adenocarcinoma cells in Z-chambers; experiment: Tumor angiogenesis in Z-chambers (microvessel density); type: in vivo, Fisher-344 rats; settings: 6 mg/kg i.p. 24 hours before implantation
Procedure: FIG. 5. Antiangiogenesis: Animals were pretreated with different SOD mimetics (6 mg/kg i.p.) 24 hours before implantation of 2.5 mil./ml R230 mammary adenocarcinoma cells in Z-chambers.
Immunohistochemistry was carried out using procedures described by Hsu et al (Hsu et al., j. Histochem. Cytochem. 29:577-580 (1981)). Briefly, paraffin embedded tissues were sectioned (5 microns) and antigen retrieval was performed using citrate buffer from Biogenex (San Ramon, Calif.). Tissues were treated with primary antibody against tissue transglutaminase (TG100, 1:10, endothelial cell marker, non-reactive to Factor XIIIa) (Neomarkers, Calif.) for 1 hour at 37° C. Secondary antibody (Jackson ImmunoResearch. PA) and tertiary. (Vector, Calif.) antibodies were incubated for 25 minutes at 37° C. and the location of the reaction was visualized with 3,3-diaminobenzidine tetrahydrochloride Sigma (St. Louis, Mo.). Slides were counterstained with hematoxylin and mounted with coverslips. Controls for the immunohistochemistry were treated with mouse IgG instead of primary antibody and were negative in any reactivity. […] Microvessel density was calculated as described by Weidner et al (Weidner et al, J. New Engl. J. Med. 324:1-8 (1991)). Briefly, six hot spots or areas with highest vessels marked by the vessel marker at a high power field (400×) per sample section were selected and number of blood vessel counted. […]

B16 melanoma tumor = B16 melanoma tumor growth in mice treated with SOD mimetic; type: in vivo; settings: 6 mg/kg i.p.
Procedure: FIGS. 2A-2C. (FIG. 2A) B16 melanoma tumor treated with SOD mimetic. The mimetic was 10113 at a dose of 6 mg/kg given intraperitoneally qd for 5 days. (FIG. 2B) Mammary adenocarcinoma treated with SOD mimetic. 10113 was given intraperitoneally at a dose of 6 mg/kg/day for 16 days. Radiation therapy (RT), 21 Gy, was given on day 8 or 9. (FIG. 2C) Fischer 344 rats with subcutaneously implanted R3230 AC mammary adenocarcinomas received Radiation treatment (21 Gy Day 1), AEOL 10113 (6 mg/kg/day IP Day 1 to 20), the combination Radiation and AEOL 10113 (as above), or Control treatment.
The effect of the MnTE-2-PyP (manganese(III) tetrakis(N-ethylpyridinium-2-yl)porphyrin) on tumor growth and radiation response in two tumor models has been tested. […] The effect of the SOD mimetic. MnTE-2-PyP, on tumor growth and radiation response has been tested in a rat model.

A549 cells = experiment: 3H-thymidine incorporation (DNA synthesis) in A549 cells; type: cell-based, human; settings: 4 μM, 24 hours
Procedure: FIG. 16. A549 cells were grown 50% confluence in 24 well plates in complete media. Cells were then incubated for 24 hours with the above concentrations of drug and ^3H-thymidine (to assess DNA synthesis). After three washes in PBS, the cells were homogenized and the radioactivity counted. At 4 μM MnTE-2-PyP, there was a 50% inhibition of incorporation of ^3H-thymidine.

[3] = SOD activity (cytochrome C method); type: biochemical
Description: FIGS. 1A-1H show the structures of certain generic and specific definitions of compounds suitable for use in the present invention. With reference to FIG. 1C, mimetics of the invention can be of Formula I or Formula II, or dimeric forms thereof, an example of a dimeric form being shown in FIG. 1D. With reference to FIG. 1H, the SOD activities of certain of the depicted compounds are shown in Table 1 (as measured by the cytochrome C method): […]

CC[n+]1ccccc1-c1c2nc(c(-c3cccc[n+]3CC)c3ccc([n-]3)c(-c3cccc[n+]3CC)c3nc(c(-c4cccc[n+]4CC)c4ccc1[n-]4)C=C3)C=C2.[Mn+3] [Compound 10113, manganese(III)tetrakis(N-ethylpyridinium-2-yl)porphyrin]
delay in the development of radiation-induced lung injury (increase in breathing rate) ([1]; 6 mg/kg/day for 5 days, LOCF, log ranks p=0.0011): approximately 3.4 weeks | reduction of the magnitude of the increase in breathing rate at endpoint ([1]; 6 mg/kg/day for 5 days, average): 34% | hydroxyproline content of upper right lobe after radiation ([1]; 6 months after 28 Gy, wet and dry lung): significant reduction (p<0.05) | recovery of body weight loss after hemithoracic irradiation ([1]; 28 Gy, 6 mg/kg daily i.p. for 5 days): significantly better recovery of the body weight loss | hydroxyproline content of right upper lobe vs control ([1]; AEOL 10113 without radiation): no differences | radiation-induced lung fibrosis by histopathology ([1]; fibrosis score 0-8, FIG. 13B): reduced radiation-induced lung fibrosis | rats that developed respiratory distress and were euthanized ([1]; of 9 rats, radiation plus AEOL 10113, 6 months, radiation only 4 of 9): 1 | tumor angiogenesis [2]: Significant inhibition of tumor angiogenesis | inhibition of tumor growth (B16 melanoma tumor; mice with B16 melanoma): significant inhibition of tumor growth | Tumor doubling time (B16 melanoma tumor; control group 2 days): 4 days | inhibition of incorporation of 3H-thymidine (A549 cells): 50% | SOD activity [3]: 10,648 U/mg
